According to patent publication US20060246124A1, “Methods of treating cancer with lipid-based platinum compound formulations administered intraperitoneally” (priority 2004, published 2006):

Columns and labels:
[1] = Pharmacokinetics and organ distribution (Part II), platinum by ICP-MS; type: in vivo, mice; settings: ip
Description: Sixty ICR mice (female, 7 weeks old) were divided into 4 groups. […] At each designed time point, three to four mice were anaesthetized with 70 mg/kg of Nembutal ip (e.g., 3, 20, and 40 min, and 2, 8, 24, 48, and 72 h). […] Organs including duodenum, kidney, liver, lung, and spleen were resected from the mice. The blood and organ samples were homogenized in distilled water (4-fold of the sample weight) and digested with nitric acid. The platinum concentration in each sample was measured by Inductively Coupled Plasma-Mass Spectrometer (ICP-MS). The pharmacokinetics profiles (FIGS. 3-7, all Y-axes are concentration of μg platinum in one gram of tissue or fluid per mg of injected dose) and parameters (Tables 3 and 4) of each formulation were simulated and calculated.

[2] = system: L1210 tumor cells; test: In vivo antitumor activity in Murine L1210 tumor model (ascitic L1210 leukemia), ip administration; settings: L1210, B6D2F1 mice
Description: The test articles and materials are presented below in Table 5.
Day 0, inoculate 6 groups of 5 male mice and 1 group of 9 male control animals with one million viable L1210 cells per mouse by ip injection. • 2. […] Each dose level represents one group of five mice. […] Control group contains 9 untreated mice.
3. Mice were monitored daily for deaths and or signs of clinical illness. The date of euthanasia was recorded for the purpose of experimental end-points. A total of 39 mice divided into 7 groups were studied. At the end point survival was assessed and expressed as % T/C (percent median survival of treated group: median survival of control group.)

[3] = system: mice; test: Maximum tolerated dose (MTD), single bolus ip injection; type: in vivo
[4] = system: L1210 cells; test: Survival of mice with implanted L1210 tumor cells: cyclic temperature vs non cyclic temperature cisplatin liposomes; type: in vivo; settings: single bolus ip 6 mg/kg on day 5, L1210, DBA/2 mice
Description: DPPC (3.0 g) and cholesterol (1.2 g) were co-dissolved in 20 mL of ethanol. • 2.
Female DBA/2 mice (Charles Rivers) were used. Thirty (30) mice were injected with 2×10^6 L1210 cells ip on Day 0. On day 1, the mice were weighed and randomized into 3 groups of 10 mice. […] Survival was monitored. Mice were weighed daily after day 10. Mice that lost 20% or greater of their starting weight were euthanized by CO2 inhalation. The date of their death was recorded on data sheets. Median survival was calculated by Prism GraphPad.

[5] = system: stage III ovarian cancer; settings: ip, patients with stage III ovarian cancer and residual tumor masses of 2 cm or less; cited from earlier work
[6] = ip dose 3 mg/kg (1 mg/kg on days 3, 7, 11)
[7] = ip dose 4.5 mg/kg ([…] on days 3, 7, 11)

N.N.[Cl][Pt][Cl] [Cisplatin, cis-diamine-dichloroplatinum (II)]
Circulation AUC ([1]; blood, normalised to injected dose): 7.08 µg·h/g/µg | Organ AUC, Duodenum ([1]; duodenum): 8.32 µg·h/g/µg | Organ AUC, Heart ([1]; heart): 2.67 µg·h/g/µg | Organ AUC, Kidney ([1]; kidney): 8.61 µg·h/g/µg | Organ Cmax, Kidney ([1]; kidney): 0.46 µg/g/µg | Organ AUC, Liver ([1]; liver): 28.99 µg·h/g/µg | Organ Cmax, Liver ([1]; liver): 0.71 µg/g/µg | Organ AUC, Lung ([1]; lung): 29.00 µg·h/g/µg | Organ Cmax, Lung ([1]; lung): 1.61 µg/g/µg | Organ AUC, Spleen ([1]; spleen): 10.45 µg·h/g/µg | % T/C [2, 6]: 196% | Median survival [2, 6]: 26.5 days | % T/C [2, 7]: 218% | Median survival [2, 7]: 29.5 days | MTD [3]: 9 mg/kg | Median survival [4]: 19.5 days | survival compared with iv cisplatin [5]: significantly improves survival
